# Results reported in US20250114335A1, “METHODS AND COMPOSITIONS FOR THE TREATMENT OF EPILEPSY” (ARIZONA BOARD OF REGENTS ON BEHALF OF THE UNIVERSITY OF …, priority 2022, published 2025).
# Values joined by “and” are separate entries in the source; they are usually repeats but may differ in a detail not shown here. Equal values may be shown once.
# Test system: B6-D/D (Scn8a-N1768D) juvenile mice
# Assay: Survival and seizure frequency, B6-D/D juvenile mice
# Format: in vivo, mouse
# Source text: Mouse strains: The C57BL/6J-N1768D congenic mouse (B6-D/+) was used for phenotyping, RNAseq, and BBB studies. In addition, a hybrid strain that was produced by backcross breeding to transfer the Scn8a-N1768D allele from the B6 to the C3H/HeJ strain background was used to further assess the effect of CND on survival and seizure frequency. After constructing an F1 by crossing male B6-D/+ heterozygotes to female C3H/HeJ, five rounds of backcrossing (N6) produced a […] and 98.5% C3H/HeJ-N1768D line (C3H-D/+). Sister-brother mating maintained the 98.5% C3H background. […] C3H-D/D mice have a delayed seizure onset (˜40-45 days) and an extended survival (65-70 days) with intermittent bouts of TCs (FIG. 1A).
# Phenotyping: Female and male mice on both the B6 and C3H backgrounds were housed in sex-specific groups of 3-4 per cage in a pathogen-free mouse facility with a 14 h light/10 h dark cycle (lights turned on at 5 am). A 24/7 video monitoring system was utilized to collect seizure data, with infrared illumination to monitor behavior during the dark period. Seizures were counted as individual TCs. Adult mice were followed from the age of 6 weeks, a period of time well before seizure onset, in order to identify the day of seizure onset. A seizure bout was defined as a cluster of seizures on consecutive days, and a gap as a seizure-free period of 3 days or more.
# Preparation of CND suspension for injections and oral dosing: Juvenile B6-D/D and adult B6-D/+ mice were given subcutaneous (s.c.) injections with either CND (2-4 mg/kg/day; doses that fall within the FDA-approved range for CND in both adults and children) or vehicle (VEH) (Sigma-Aldrich) (FIG. 1B). Oral dosing of adults was performed by thoroughly mixing 160 μl of suspension containing 1.28 mg of CND or VEH with 5 g of pure (organic) peanut butter in a petri dish. Mice were given 1 g pellet per mouse each day. Pellets were weighed each day to record the amount consumed, and 24/7 video was used to verify that each mouse was consuming the pellet. An average of 0.79 g (±0.36 g) was consumed by an adult mouse (˜20-25 g), corresponding to 9.1±4.2 mg/kg/day. No correlations were found for the amount of CND consumed and lifetime survival or number of TCs.
# Survival and seizure frequency studies: B6-D/D mice were injected with CND (n=10) or VEH (n=10) at 15 days of age (P15) and followed to monitor TCs by 24/7 video recording until death (FIG. 1B). A separate set of 10 B6-D/D mice was administered a daily s.c. injection of 25 mg/kg/day phenytoin (PHT) suspension or VEH (US Pharmacopeia, Sigma-Aldrich). Oral administration of CND or VEH was initiated at the time of seizure onset (range P75-P85) for adult B6-D/+ females (N=10) and males (N=10) (FIG. 1B). Mice were monitored for seizures by 24/7 video recording until the time of death.
structure (smiles),measurement,setting,value
"O=C1NC(=O)C(c2ccccc2)(c2ccccc2)N1 [PHT, phenytoin]",survival of juveniles (in words),B6-D/D Juveniles,minor increase in survival that did not reach statistical significance
same,#TCs,"B6-D/D juveniles, Treated",55.9 TCs
same,#TCs/day (Life),"B6-D/D juveniles, Treated",1.9 TCs/day
same,#TCs/day (PostTC),"B6-D/D juveniles, Treated",10.2±7.1 TCs/day and 10.2 TCs/day
same,#gaps,"B6-D/D juveniles, Treated",1.2
same,Age at Onset,"B6-D/D juveniles, Treated",22.2
same,Days with TCs,"B6-D/D juveniles, Treated",6.8 days
same,gap days,"B6-D/D juveniles, Treated",5.2 days
same,mean gap length,"B6-D/D juveniles, Treated",3.5
same,Age at Death,"B6-D/D juveniles, Treated, daily s.c. injection",30.1 ± 5.1 days and 30.1 days
